2 compounds from article PMC9313812, “The Pseudo‐Natural Product Rhonin Targets RHOGDI” (Angewandte Chemie (International Ed. in English), 2022) can be followed below.

Test [1] addresses T1, RHOGDI1-mediated extraction of RHOA (Homo sapiens, UniProt P52565).
T1 construct: made in house; host or cells: RHOGDI1: E. coli; prenylated RHOA: insect cells (TNAO38)
The test can be described thus: Liposome sedimentation assay: displacement of prenylated GDP-bound RHOA by GST-RHOGDI1. In kind it is biochemical. Conditions: 50 μM compound. Here is the method: Supplementary Figure S4. Compound 7a impairs RHOGDI1 function. (a) Assay setup for the liposome sedimentation assay. (b) Displacement of prenylated GDP‐bound RAC1 from synthetic liposomes by GST-RHOGDI1 in the presence or absence of 50 μM 7a was measured using liposome floatation assay. Data is representative of three independent experiments.
Liposome-containing phase represented by fluorescent colour as result of 5% fluorescent NDB-PE was analysed by Western blotting. Data are representatives of three independent […]
experiments. (c-d) Displacement of prenylated
GDP‐bound RHO GTPases (RHOA and CDC42) from synthetic liposomes by GST‐RHOGDI1 […]
liposome sedimentation assay. Data is representative of three independent experiments. P: […]
Liposome sedimentation assay
Liposomes were prepared by self-assembly of the lipids (500 μg) containing 20% (w/w) phosphatidylethanolamine, 45% (w/w) phosphatidylcholine, 20% (w/w) phosphatidylserine, 10% (w/w) cholesterol, and 5% (w/w) phosphatidylinositol 4,5-bisphosphate. […] The resulting pellet and supernatant fractions were collected and analyzed by immunoblotting. […]
The resulting samples were centrifuged at 140000 x g for 1 h at 4 °C. The upper liposome‐ containing phase (detected by fluorescent NDB‐PE) was collected and analyzed by […]

The subject of test [2] is GTP-bound RHO GTPases (RHOA, RAC1, CDC42). Briefly: G-LISA activation assays. It is filed as cell-based. Particulars: 10 μM, 24 h. As for the experimental part:
40,000 x g for 30 min at 4°C. Supernatants were collected as cytoplasmic fraction and pellets were resuspended into a homogenization buffer (0.25 M sucrose, 20 mM Tris/HCl pH 7.4, 25 mM KCl, 5 mM MgCl2) and further centrifuged (2 h at 100,000 x g) using an iodixanol (OptiPrep, Axis Shield) gradient solution. Obtained fractions were used for immunoblotting.
NIH/3T3 cells were seeded in a 96 plate (10,000 cell per well/ plate name: Essen Bioscience NO 4379). NIH/3T3 cells were grown till 80% confluence and then serum starved (0 % FCS) for 24 h. Scratch was performed using the Incucyte Woundmaker Tool. Next, 10 µM Rhonin was added to the wells. As controls, 2 µg/ml RHO inhibitor I (cat#CT04/ cytoskeleton) and 0.5% DMSO were used. Cell migration was monitored using IncuCyte ZOOM for a period of 48 h. The images were analyzed by the Incucyte Scratch Wound Analysis Software.
G-LISA activation assays for RHOA, RAC1 and CDC42 […]
GTPase primary antibody (RAC1, CDC42 or RHOA) was added and the tubes and were incubated for 45 min at room temperature. […] Absorption was detected at 490 nm using a plate reader (Tecan Sparks).
Aqueous solubility of compounds was assessed by determination of the kinetic solubility of a test compound in aqueous buffer compared to a solution in organic solvent (acetonitrile). […]

T1 sequence (P52565 whole entry): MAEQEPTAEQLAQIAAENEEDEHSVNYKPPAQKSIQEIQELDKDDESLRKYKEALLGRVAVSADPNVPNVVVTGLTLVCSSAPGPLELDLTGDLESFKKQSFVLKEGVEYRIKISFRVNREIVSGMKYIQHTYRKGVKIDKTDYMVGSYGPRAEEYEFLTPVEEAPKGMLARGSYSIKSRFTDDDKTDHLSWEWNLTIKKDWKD

For `COC(=O)C1(C(CC(=O)c2ccccc2)c2ccccc2)N=C(c2ccc(Br)cc2)C2C(=O)N(C)C(=O)C21` (centres unmarked) [7a], in test [1], the “Inhibition of RHOGDI1-mediated extraction of RHOA (in words)” value is given as “inhibited”.

For the compound `COC(=O)C1(C(CC(=O)c2cccnc2)c2ccccc2)N=C(c2ccc(Br)cc2)C2C(=O)N(C)C(=O)C21` (centres unmarked) [7l], the “Levels of GTP-bound RHO GTPases (in words)” value in test [2] is on record as “increased”.
